Here are results for 33 molecules from ChEMBL document CHEMBL1212904, “Discovery of pyrrole-indoline-2-ones as Aurora kinase inhibitors with a different inhibition profile” (J Med Chem, 2010).

Assay [1] relates to HCT-116. Nature of the assay: Antiproliferative activity against human HCT116 cells after 72 hrs by cell titer 96 assay. Type of assay: functional, cell-based. Conditions: HCT-116, 72 h.
The next assay relates to HT-29. Nature of the assay: Antiproliferative activity against human HT-29 cells after 72 hrs by cell titer 96 assay. The class given is functional, cell-based. Conditions: HT-29, 72 h.
Assay [2] concerns the target T1, Aurora kinase B (Homo sapiens, UniProt Q96GD4). Nature of the assay: Inhibition of recombinant aurora B.
Another assay concerns HeLa. Nature of the assay: Antiproliferative activity against human HeLa cells after 72 hrs by cell titer 96 assay. Type of assay: functional, cell-based.
A further assay addresses T2, Aurora kinase A (Homo sapiens, UniProt O14965).
T2 sequence (O14965 whole entry): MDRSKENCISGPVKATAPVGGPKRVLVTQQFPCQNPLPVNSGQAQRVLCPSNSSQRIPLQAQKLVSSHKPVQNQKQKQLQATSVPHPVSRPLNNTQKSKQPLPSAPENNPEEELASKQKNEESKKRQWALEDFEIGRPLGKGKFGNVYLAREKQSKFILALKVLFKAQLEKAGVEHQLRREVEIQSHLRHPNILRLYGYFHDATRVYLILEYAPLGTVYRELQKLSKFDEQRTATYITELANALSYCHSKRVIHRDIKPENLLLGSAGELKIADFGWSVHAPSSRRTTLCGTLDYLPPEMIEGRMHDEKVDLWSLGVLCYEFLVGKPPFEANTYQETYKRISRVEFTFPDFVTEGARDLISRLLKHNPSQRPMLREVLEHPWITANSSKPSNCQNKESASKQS
Nature of the assay: Inhibition of recombinant aurora A.

Assay [3] deals with T1, Aurora kinase B. Nature of the assay: Inhibition of recombinant aurora B at 1 uM.
Assay [4] deals with HCT-116. Nature of the assay: Antiproliferative activity against human HCT116 cells after 72 hrs by [3H]thymidine incorporation assay. Type of assay: functional, cell-based. For orientation: Dividing cells build labelled thymidine or BrdU into new DNA.
The target in assay [5] is T3, Aurora kinase A (Homo sapiens) (UniProt O14965).
T3 sequence (whole entry): T2 sequence (O14965 whole entry)
Nature of the assay: Inhibition of recombinant aurora A at 1 uM.

pIC50: −log10 of the molar value.

T1 sequence (Q96GD4 whole entry): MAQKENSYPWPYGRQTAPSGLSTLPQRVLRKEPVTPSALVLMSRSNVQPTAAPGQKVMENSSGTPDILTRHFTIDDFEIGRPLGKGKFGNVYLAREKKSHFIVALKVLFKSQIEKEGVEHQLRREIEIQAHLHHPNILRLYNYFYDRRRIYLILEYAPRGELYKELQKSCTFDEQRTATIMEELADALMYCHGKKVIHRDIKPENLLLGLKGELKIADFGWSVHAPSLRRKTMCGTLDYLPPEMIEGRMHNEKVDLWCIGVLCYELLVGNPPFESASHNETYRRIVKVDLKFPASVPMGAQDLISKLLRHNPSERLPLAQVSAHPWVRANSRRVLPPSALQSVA

The pIC50 is the negative decadic logarithm of the IC50, by convention in mol/L. Take `O=C1Nc2ccc(NS(=O)(=O)c3ccccc3)cc2/C1=C/c1[nH]c2c(c1CCCN1CCCC1)C(=O)CCC2`: the pIC50 was less than 5.00 with HCT-116 [1]; 5.48 in the assay with HT-29; 6.51 at Aurora kinase B [2]; less than 5.00 with HeLa; 5.66 on Aurora kinase A.
What is called inhibition is the relative decrease from the control value, in per cent. Turning to `CCOC(=O)CCc1c(/C=C2\C(=O)Nc3ccc(F)cc32)[nH]c2c1C(=O)CCC2`, the inhibition at Aurora kinase B [3] was 3%.
For `CC(=O)c1c(C)[nH]c(/C=C2\C(=O)Nc3ccc(F)cc32)c1CCC(=O)O`, on Aurora kinase B [3], the inhibition came to 17.5%. Also, at Aurora kinase A, the negative logarithm of the IC50 (pIC50) is 6.44.
Turning to `O=C(O)CCc1c(/C=C2\C(=O)Nc3ccc(S(=O)(=O)Cc4ccc(F)cc4)cc32)[nH]c2c1C(=O)CCC2`, the inhibition at Aurora kinase B [3] is 15.5%.
On to `C=CCS(=O)(=O)c1ccc2c(c1)/C(=C/c1[nH]c3c(c1CCC(=O)O)C(=O)CCC3)C(=O)N2`, for which the inhibition on Aurora kinase B [3] was 32.5%. In addition, the negative-log IC50 (pIC50) on Aurora kinase A was 7.41.
As to `O=C(O)CCc1c(/C=C2\C(=O)Nc3ccc(NC(=O)c4ccccc4)cc32)[nH]c2c1C(=O)CCC2`, the inhibition at Aurora kinase B [3] turned out to be 14.2%. Further, the pIC50 on Aurora kinase A is 6.14.
Take `O=C(O)CCc1c(/C=C2\C(=O)Nc3ccc(F)cc32)[nH]c2c1C(=O)CCC2`: on Aurora kinase B [3], the inhibition is 11.6%.
Still for that read-out and setting: with `CC(=O)Nc1ccc2c(c1)/C(=C/c1[nH]c3c(c1CCC(=O)O)C(=O)CCC3)C(=O)N2` the figure was 12.8%.
On to `O=C(O)CCc1c(/C=C2\C(=O)Nc3ccc(S(=O)(=O)N4CCc5ccccc54)cc32)[nH]c2c1C(=O)CCC2`, for which the pIC50 on Aurora kinase A is 8.10.
Take `CCS(=O)(=O)Nc1ccc2c(c1)/C(=C/c1[nH]c3c(c1CCC(=O)O)C(=O)CCC3)C(=O)N2`: the inhibition at Aurora kinase B [3] was 7.3%. The negative-log IC50 (pIC50) at Aurora kinase A is 7.47.
With `COc1ccc(-c2ccc3c(c2)/C(=C/c2[nH]c4c(c2CCC(=O)O)C(=O)CCC4)C(=O)N3)cc1OC`, the inhibition at Aurora kinase B [3] came to 5.1%.
On the same count and under the same terms, with `O=C(O)CCc1c(/C=C2\C(=O)Nc3ccc([N+](=O)[O-])cc32)[nH]c2c1C(=O)CCC2` the figure was 3.4%.
As to `O=C1Nc2ccc(NS(=O)(=O)c3ccccc3)cc2/C1=C/c1[nH]c2c(c1CCC(=O)N1CCCC1)C(=O)CCC2`, the pIC50 was less than 5.00 in the assay with HCT-116 [1]; less than 5.00 in the assay on HT-29; 6.14 on Aurora kinase B [2]; less than 5.00 with HeLa; 6.66 at Aurora kinase A.
As to `CNC(=O)CCc1c(/C=C2\C(=O)Nc3ccc(NS(=O)(=O)c4ccccc4)cc32)[nH]c2c1C(=O)CCC2`, the pIC50 is less than 5.00 in the assay on HCT-116 [1]; less than 5.00 in the assay with HT-29; 6.49 at Aurora kinase B [2]; less than 5.00 in the assay with HeLa; 6.93 at Aurora kinase A.
With `O=C1Nc2ccc(S(=O)(=O)N3CCc4ccccc43)cc2/C1=C/c1[nH]c2c(c1CCC(=O)N1CCOCC1)C(=O)CCC2`, the pIC50 in the assay on HCT-116 [1] was less than 5.00; in the assay with HT-29, less than 5.00; on Aurora kinase B [2] it was 5.50; in the assay on HeLa, less than 5.00; at Aurora kinase A it was 6.25.
For `CNS(=O)(=O)c1ccc2c(c1)/C(=C/c1[nH]c3c(c1CCC(=O)O)C(=O)CCC3)C(=O)N2`, the inhibition on Aurora kinase B [3] was 2.6%.
The same measure, in the same setting: to `O=C(O)CCc1c(/C=C2\C(=O)Nc3ccc(S(=O)(=O)Cc4ccccc4)cc32)[nH]c2c1C(=O)CCC2` belongs 11.2%.
For `CCS(=O)(=O)c1ccc2c(c1)/C(=C/c1[nH]c3c(c1CCC(=O)O)C(=O)CCC3)C(=O)N2`, the inhibition on Aurora kinase B [3] is 7%. The pIC50 at Aurora kinase A was 7.24.
Consider `NS(=O)(=O)c1ccc2c(c1)/C(=C/c1[nH]c3c(c1CCC(=O)O)C(=O)CCC3)C(=O)N2`, for which, on Aurora kinase B [3], the inhibition came out at 34.1%.
In the case of `O=C(O)CCc1c(/C=C2\C(=O)Nc3ccc(NS(=O)(=O)c4ccccc4)cc32)[nH]c2c1C(=O)CCC2`, the pIC50 in the assay on HCT-116 [1] was less than 5.00; in the assay on HCT-116 [4], less than 5.00; in the assay with HT-29, less than 5.00; at Aurora kinase A, 7.92.
For `O=C1Nc2ccc(NS(=O)(=O)c3ccccc3)cc2/C1=C/c1[nH]c2c(c1CCC(=O)N1CCOCC1)C(=O)CCC2`, the pIC50 is less than 5.00 with HCT-116 [1]; less than 5.00 in the assay with HT-29; 6.04 on Aurora kinase B [2]; less than 5.00 in the assay on HeLa; 6.55 at Aurora kinase A.
Consider `COc1cc(-c2ccc3c(c2)/C(=C/c2[nH]c4c(c2CCC(=O)O)C(=O)CCC4)C(=O)N3)ccc1O`, for which the inhibition at Aurora kinase B [3] amounted to 12.4%.
With `O=C(O)CCc1c(/C=C2\C(=O)Nc3ccc(F)cc32)[nH]c2c1C(=O)CCCC2`, the inhibition in assay [5] stood at 45.5%; at Aurora kinase B [3], 2%.
For the molecule `O=C(O)CCc1c(/C=C2\C(=O)Nc3ccc(Br)cc32)[nH]c2c1C(=O)CCC2`, the inhibition at Aurora kinase B [3] amounted to 6.8%.
With `CN(C)CCCc1c(/C=C2\C(=O)Nc3ccc(S(=O)(=O)N4CCc5ccccc54)cc32)[nH]c2c1C(=O)CCC2`, the negative logarithm of the IC50 (pIC50) with HCT-116 [1] is 6.05; in the assay on HT-29, 6.12; on Aurora kinase B [2], 6.51; in the assay on HeLa it was 5.79; at Aurora kinase A it was 5.64.
With `CCN(CC)CCCc1c(/C=C2\C(=O)Nc3ccc(NS(=O)(=O)c4ccccc4)cc32)[nH]c2c1C(=O)CCC2`, the pIC50 was less than 5.00 in the assay on HCT-116 [1]; less than 5.00 in the assay on HT-29; 6.45 on Aurora kinase B [2]; 5.06 in the assay with HeLa; 5.61 on Aurora kinase A.
For the molecule `CCOC(=O)CCc1c(/C=C2\C(=O)Nc3ccccc32)[nH]c2c1C(=O)CCC2`, the inhibition at Aurora kinase B [3] was determined as 2.3%.
Turning to `CC1(C)CC(=O)c2c([nH]c(/C=C3\C(=O)Nc4ccc(F)cc43)c2CCC(=O)O)C1`, the inhibition at Aurora kinase B [3] turned out to be 17.3%. In addition, at Aurora kinase A, the negative logarithm of the IC50 (pIC50) was 6.34.
On to `CCN(CC)CCCc1c(/C=C2\C(=O)Nc3ccc(S(=O)(=O)N4CCc5ccccc54)cc32)[nH]c2c1C(=O)CCC2`, for which the pIC50 is 5.58 in the assay on HCT-116 [1]; 5.67 in the assay on HT-29; 6.21 at Aurora kinase B [2]; 5.49 with HeLa; 5.63 at Aurora kinase A.
Take `O=C(O)CCc1c(/C=C2\C(=O)Nc3ccc(NS(=O)(=O)c4ccc5ccccc5c4)cc32)[nH]c2c1C(=O)CCC2`: the inhibition in assay [5] was found to be 40.6%; at Aurora kinase B [3], 21%.
On to `O=C(O)CCc1c(/C=C2\C(=O)Nc3ccc(S(=O)(=O)N4CCCC4)cc32)[nH]c2c1C(=O)CCC2`, for which the pIC50 at Aurora kinase A is 8.15.
For the molecule `CN(C)S(=O)(=O)c1ccc2c(c1)/C(=C/c1[nH]c3c(c1CCC(=O)O)C(=O)CCC3)C(=O)N2`, the negative logarithm of the IC50 (pIC50) on Aurora kinase A is 7.68.
In the case of `O=C(O)CCc1c(/C=C2\C(=O)Nc3ccccc32)[nH]c2c1C(=O)CCC2`, the inhibition on Aurora kinase B [3] was 13%.
